# Assay results published in the supplement of paper PMC10307832.
# Tests used:
# Test in all cases: relative viability (nuclei count vs DMSO), 5 days (fraction); higher = more cells survive
# Vandetanib + AZD7762 = compound: COc1cc2/c(=N/c3ccc(Br)cc3F)nc[nH]c2cc1OCC1CCN(C)CC1 [Vandetanib] + NC(=O)Nc1cc(-c2cccc(F)c2)sc1C(=O)N[C@H]1CCCNC1 [AZD7762] (partner 0.2 µM)
# Outline: (§1)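 After 5 days of treatment, lung cancer cells in 1536-well plates were fixed and stained in a single step (final 0.05% Triton X-100, 1% formaldehyde, 1 ug/ml Hoechst) and their nuclei counted on 4× images. Treatment had been applied by pin tool the day after seeding as one drug alone or as a fixed anchor-drug dose with five library-drug doses (not always all listed) in √10 steps. Relative viability is the nuclei count of treated wells divided by that of vehicle wells, and values are medians of duplicate plates.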
# Vandetanib + Dasatinib = compound: COc1cc2/c(=N/c3ccc(Br)cc3F)nc[nH]c2cc1OCC1CCN(C)CC1 [Vandetanib] + Cc1nc(Nc2ncc(C(=O)Nc3c(C)cccc3Cl)s2)cc(N2CCN(CCO)CC2)n1 [Dasatinib] (partner 0.075 µM)
# Outline: as §1
# NVP-TAE684 + Alpelisib = compound: COc1cc(N2CCC(N3CCN(C)CC3)CC2)ccc1Nc1ncc(Cl)c(Nc2ccccc2S(=O)(=O)C(C)C)n1 [NVP-TAE684] + Cc1nc(NC(=O)N2CCC[C@H]2C(N)=O)sc1-c1ccnc(C(C)(C)C(F)(F)F)c1 [Alpelisib] (partner 2 µM)
# Outline: as §1
# [1] = compound: C1=CC=C2C(=C1)N=C(S2)C(C#N)C3=NC(=NC=C3)NCCC4=CN=CC=C4 + N=C(N)NC(=N)NCCc1ccccc1 [Phenformin] (partner 250 µM)
# Outline: as §1
Cell Line,relative viability (Vandetanib + AZD7762; first compound 0.02 µM),relative viability (Vandetanib + AZD7762; first compound 0.06325 µM),relative viability (Vandetanib + AZD7762; first compound 0.2 µM),relative viability (Vandetanib + AZD7762; first compound 0.6325 µM),relative viability (Vandetanib + AZD7762; first compound 2 µM),relative viability (Vandetanib + Dasatinib; first compound 0.02 µM),relative viability (Vandetanib + Dasatinib; first compound 0.06325 µM),relative viability (Vandetanib + Dasatinib; first compound 0.2 µM),relative viability (Vandetanib + Dasatinib; first compound 0.6325 µM),relative viability (Vandetanib + Dasatinib; first compound 2 µM),relative viability (NVP-TAE684 + Alpelisib; first compound 0.2 µM),relative viability (NVP-TAE684 + Alpelisib; first compound 0.6325 µM),relative viability (NVP-TAE684 + Alpelisib; first compound 2 µM),relative viability ([1]; first compound 0.005 µM),relative viability ([1]; first compound 0.01581 µM),relative viability ([1]; first compound 0.05 µM),relative viability ([1]; first compound 0.1581 µM),relative viability ([1]; first compound 0.5 µM)
LU99A,0.303,0.516,0.344,0.238,0.334,0.427,0.521,0.387,0.416,0.636,0.594,0.524,0.328,0.767,0.9,0.793,1.07,0.814
LXF-289,1.07,1.08,1.04,1.1,1.01,0.24,0.218,0.107,0.257,0.253,1.08,1.04,,0.447,0.563,0.458,0.592,0.496
NCI-H23,0.193,0.251,0.199,0.234,0.31,0.882,0.806,0.821,0.797,0.728,0.856,0.62,0.484,0.638,0.762,0.804,0.934,0.886
NCI-H322M,0.518,0.567,0.605,0.496,0.374,0.23,0.25,0.24,0.223,0.252,0.638,0.771,0.818,0.63,0.688,0.708,0.81,0.694
NCI-H358,0.545,0.465,0.476,0.431,0.358,0.131,0.201,0.161,0.136,0.124,0.751,0.478,0.203,0.216,0.329,0.334,0.404,0.258
NCI-H441,1.12,0.945,1.02,1.31,1.34,0.552,0.54,0.617,0.598,0.629,0.835,0.965,0.503,,0.993,1,0.913,0.79
NCI-H460,0.497,0.624,0.57,0.466,0.581,0.366,0.536,0.48,0.36,0.482,0.607,0.412,0.113,0.281,0.57,0.503,0.695,0.29
NCI-H596,1.15,1.05,1.12,1.02,1.17,0.498,0.659,0.646,0.585,0.596,0.526,0.517,0.375,0.557,0.848,0.687,0.921,0.801
NCI-H647,0.404,0.481,0.395,0.404,0.446,0.151,0.207,0.175,0.178,0.198,1.32,1.1,0.377,0.265,0.442,0.584,0.775,0.292
NCI-H650,1.01,1.02,0.976,0.941,0.905,0.425,0.511,,0.433,0.365,1.06,0.961,0.571,0.49,,0.483,0.452,0.505
NCI-H727,0.482,0.489,0.651,0.562,0.635,0.403,0.408,0.317,0.318,0.329,0.591,0.409,0.275,,0.577,0.45,0.55,0.641
NCI-H838,0.902,0.895,0.976,1.03,0.894,0.278,0.286,0.341,0.29,0.27,1.06,0.97,0.537,0.326,0.573,0.527,0.717,0.39
NCI-H1355,0.741,0.742,0.755,0.66,0.653,0.633,0.723,0.694,0.679,0.775,0.721,0.928,0.473,0.41,0.437,0.412,0.436,0.412
NCI-H1395,0.404,0.399,0.427,0.418,0.434,0.349,0.373,0.417,0.405,0.444,1.2,1.19,0.739,0.422,0.378,0.415,0.449,0.418
NCI-H1437,1.16,1.12,1.1,1.2,1.09,0.401,0.45,0.254,0.405,0.222,1,1,0.516,0.298,0.3,0.345,0.339,0.223
NCI-H1651,0.431,0.425,0.462,0.442,0.486,0.313,0.461,0.431,0.394,0.386,,1.02,0.994,0.281,0.352,0.364,0.403,0.337
NCI-H1666,0.83,0.772,0.734,0.814,0.722,0.767,0.723,0.801,0.769,0.779,,0.837,0.524,0.529,0.578,0.556,0.539,0.511
NCI-H1734,0.554,0.511,0.557,0.517,0.545,0.471,0.497,0.44,0.469,0.468,0.768,0.916,0.468,,0.44,0.375,0.471,0.392

Cell Line,relative viability (Vandetanib + AZD7762; first compound 0.02 µM),relative viability (Vandetanib + AZD7762; first compound 0.06325 µM),relative viability (Vandetanib + AZD7762; first compound 0.2 µM),relative viability (Vandetanib + AZD7762; first compound 0.6325 µM),relative viability (Vandetanib + AZD7762; first compound 2 µM),relative viability (Vandetanib + Dasatinib; first compound 0.02 µM),relative viability (Vandetanib + Dasatinib; first compound 0.06325 µM),relative viability (Vandetanib + Dasatinib; first compound 0.2 µM),relative viability (Vandetanib + Dasatinib; first compound 0.6325 µM),relative viability (Vandetanib + Dasatinib; first compound 2 µM),relative viability (NVP-TAE684 + Alpelisib; first compound 0.2 µM),relative viability (NVP-TAE684 + Alpelisib; first compound 0.6325 µM),relative viability (NVP-TAE684 + Alpelisib; first compound 2 µM),relative viability ([1]; first compound 0.005 µM),relative viability ([1]; first compound 0.01581 µM),relative viability ([1]; first compound 0.05 µM),relative viability ([1]; first compound 0.1581 µM),relative viability ([1]; first compound 0.5 µM)
NCI-H1755,0.455,0.436,0.42,0.437,0.503,0.416,0.425,0.446,0.42,0.404,0.692,1,0.771,0.617,0.641,0.621,0.695,0.607
NCI-H1792,0.654,0.656,0.607,0.5,0.673,0.774,0.803,0.783,0.884,0.725,0.647,0.718,0.684,,,0.286,0.697,0.388
NCI-H1793,0.514,0.409,0.331,0.286,0.397,0.448,0.353,0.387,0.381,0.391,0.78,0.637,0.436,0.382,0.369,0.328,0.454,0.355
NCI-H1915,0.696,0.664,0.693,0.612,0.719,0.278,0.279,0.304,0.313,0.312,1.03,1.13,0.963,0.312,0.37,0.356,0.398,0.353
NCI-H1944,0.489,0.611,0.555,0.462,0.471,0.208,0.218,0.205,0.195,0.215,0.786,0.797,0.691,0.159,0.227,0.206,0.234,0.203
NCI-H1975,0.701,0.663,0.645,0.687,0.617,0.349,0.361,0.341,0.423,0.373,0.703,0.545,0.235,0.301,0.42,0.404,0.447,0.359
NCI-H1993,0.737,0.74,0.861,0.78,0.555,0.796,0.577,0.514,0.623,0.578,,0.7,0.696,0.586,0.514,0.461,0.58,0.542
NCI-H2085,0.941,0.944,0.951,0.857,0.946,0.226,0.236,0.2,0.279,0.244,0.934,0.897,0.712,0.639,0.702,0.595,0.819,0.799
NCI-H2087,1.38,1.23,1.54,1.4,1.49,0.809,0.661,0.684,0.835,0.984,1.07,1.04,1.01,0.472,0.495,0.471,0.623,0.426
NCI-H2126,1.03,0.938,1.01,0.971,1,0.564,0.564,0.626,0.559,0.467,0.756,0.811,0.65,0.536,0.529,0.505,0.543,0.529
NCI-H2170,0.822,0.8,0.893,0.781,0.835,0.55,0.555,0.487,0.462,0.609,0.702,0.789,0.672,0.396,0.405,0.446,0.417,0.384
NCI-H2347,0.764,0.657,0.788,0.778,0.689,0.299,,0.312,0.323,0.345,1.14,1.07,0.906,0.417,0.334,0.322,0.611,0.455
NCI-H2405,0.703,0.651,0.674,0.698,0.571,0.217,0.183,0.2,0.187,0.199,0.835,0.662,0.374,0.362,0.364,0.358,0.455,0.407
NCI-H3122,0.917,1,1.01,0.926,1.01,0.683,0.673,0.122,0.76,0.797,0.28,0.197,0.189,0.393,0.37,0.364,0.44,0.35
PC-3 [JPC-3],0.766,0.729,0.591,0.512,0.419,0.952,0.865,0.954,0.497,0.571,0.963,1.02,0.893,0.502,0.485,0.456,0.48,0.419
PC-14,0.361,0.282,0.25,0.164,0.13,0.246,0.136,0.0576,0.0422,0.0429,0.728,1.05,0.874,0.381,0.401,0.542,0.75,0.45
RERF-LC-KJ,,0.985,1.06,1.04,0.766,0.767,0.868,0.756,0.758,0.683,0.789,0.743,0.843,0.396,0.447,0.403,0.442,0.377
